One test has as its system TNF-α. Briefly: LPS induced sepsis for measurement of TNF-α inhibition in mice. It counts as in vivo. Particulars: mice; for inhibition in vivo at 50 mg/kg: Mus musculus, 1.5 h, oral, serum 90 minutes after LPS; for TNF -α in vivo (mice): Table XVa summary, unit assumed. The method, then:
LPS Induced Sepsis for Measurement of TNF-α Inhibition in Mice
The LPS induced sepsis model in mice was performed as described by Les sekut et al (J Lab Clin Med 1994; 124, 813-20). Female Swiss albino mice were selected and the body weights were equivalent within each group. The mice were fasted for 20 hours with free access to water. The mice were dosed orally with the test compound suspended in vehicle containing 0.5% Tween 80 in 0.25% Carboxy-methylcellulose sodium salt. The control mice were administered the vehicle alone. After 30 minutes of oral dosing, mice were injected with 500 μg of Lipopolysaccharide (Escherichia coli, LPS: B4 from Siga) in phosphate buffer saline solution into the intraperitoneal cavity of the mice. After 90 minutes of LPS administration mice were bled via retro-orbital sinus puncture. Blood samples were stored overnight at 4° C. Serum samples were collected by centrifuging the samples at 4000 rpm for 15 minutes at 4° C. Immediately the serum samples were analyzed for TNF-α levels using commercially available mouse TNF-α ELISA kit (Amersham Biosciences) and assay was performed by the manufacturer instruction.
ED50 Measurement of TNF Alpha Inhibition in Mice Sepsis Model

The next test deals with DSS Induced colitis. Briefly: IBD-DSS model (DSS induced colitis). It counts as in vivo, mice. The note with it: Table XVb summary. How it is done:
Inhibitory Activity in IBD-DSS Model
DSS Induced colitis test was performed as described by Axelsson et al., 1998. Male Balb/c mice were selected in the age of 7-8 weeks for the study. Colitis in mice was induced by providing DSS (2%) in the drinking water from day 1 to 6. Mice were dosed from Day 1 to 6 with test compound suspended in vehicle containing 0.25% carboxymethyl cellulose and 0.5% Tween 80. The control animals received vehicle alone. Body weight and disease activity index was recorded daily during the experiment. After 6 days of treatment, animals were sacrificed; colon weight and colon length was recorded.

Test [1] concerns Oxazolone induced dermatitis. Briefly: Psoriasis model, oxazolone induced dermatitis. Format: in vivo, mice. The note with it: Table XVb summary, dermatitis model not specified. How it is done: Inhibitory Activity in Psoriasis Model Oxazolone induced dermatitis in mice was performed as described in the literature. Female Balb/c were selected in the age of 6-7 weeks for the study and 20-25 g. Mice were sensitized with oxazolone (15%) from Day 1 to day 6 by applying it on the shaved abdomen. Elicitation was done with oxazolone (2%) on the ear on day 7. Test compounds were applied topically on the ear 15 minutes and 6 hours post oxazolone application on day 7. 24 hours after oxazolone application, ear thickness is measured and ear were excised under anesthesia and weighed.

In another test the test system is TPA induced dermatitis. Briefly: Psoriasis model, TPA induced dermatitis. The note with it: mice, topical on the ears. It counts as in vivo. How it is done:
Inhibitory Activity in Psoriasis Model TPA induced dermatitis in mice was performed using the protocol described in Eur J Pharmacol 507, 253-259, 2005. Balb/c mice were acclimatized to laboratory conditions 5-7 days prior to the start of the experiment. They were randomly distributed to various groups based on body weight. The baseline ear thickness of the animal's both ears using thickness gauge was measured. For each animal 20 μl of that contains 2.5 μg of TPA was applied with help of micropipettor with disposable tips. Test compound was applied topically to both inner and outer surface of the both the ears i.e. left and right ear with acetone as control after 30 minutes 6 hours and 24 hours after application of TPA (20 μl). Ear thickness was measured after 6 and 24 hours in animals, while for ear weight ears were excised under anesthesia and weighed.

The test system of a further test is T1, PDE4.
T1 construct: other: 10 μM, source human U937 cells; PDE4 at 10 μm
Briefly: PDE4 activity (source human U937 cells). Format: biochemical. The note with it: for PDE4 inhibition at 10 μM (%): source human U937 cells; for PDE4 at 10 μm: Table XVb summary. How it is done:
PDE4 inhibition was measured by following a literature assay procedure (Cortizo J et al., Br J. Pharmacol., 1993, 108: 562-568. The assay method involves the following conditions.
Substrate: 1.01 μM [^3H] camp+camp
Pre-Incubation Time/Temperature: 15 minutes at 25° C.
Incubation Time/Temperature. 20 minutes at 25° C.
Incubation buffer: 50 mM Tris-HCl, pH 7.5, 5 mM MgCl2
Quantitation method: Quantitation of [^3H] Adenosine
Significance criteria: ≧50% of max stimulation or inhibition

Test [2] has as its system purified recombinant COX-1. Briefly: COX-1 enzyme based assay. Format: biochemical. The method, then:
COX-1 and COX-2 enzyme based assays were carried out to check the inhibitory potential of the test compounds on the production of prostaglandin by purified recombinant COX-1/COX-2 enzyme (Proc. Nat. Acad. Sci. USA, 88, 2692-2696, 1991; J. Clin. Immunoassay 15, 116-120, 1992). In this assay, the potential of the test compound to inhibit the production of prostaglandin either by COX-1 or COX-2 from arachidonic acid (substrate) was measured. This was an enzyme based in-vitro assay to evaluate selective COX inhibition with good reproducibility.
Arachidonic acid was converted to PGH2 (Intermediate product) by COX1/COX-2 in the presence or absence of the test compound. The reaction was carried out at 37° C. and after 2 minutes it was stopped by adding 1M HCl. Intermediate product PGH2 was converted to a stable prostanoid product PGF2α by SnCl2 reduction. The amount of PGF2α produced in the reaction was inversely proportional to the COX inhibitory potential of the test compound. The prostanoid product was quantified via enzyme immunoassay (EIA) using a broadly specific antibody that binds to all the major forms of prostaglandin, using Cayman ELISA kit as per the procedure outlined by the manufacturer (Cayman Chemicals, Ann Arbor, USA).

The test system of another test is IL-6. Briefly: In vitro measurement of Interleukin-6 in human PBMC. Format: cell-based. Particulars: Table XVa summary. The method, then:
In Vitro Measurement of Interleukin-6 (IL-6)
This assay determines the effect of test compounds on the production of IL-6 in human PBMC (Physiol. Res. 52, 593-598, 2003). Compounds were tested for their ability to inhibit the activity of IL-6 in human PBMC. PBMC were isolated from blood using BD Vacutainer CPT™ Cell preparation tube (BD Bio Science) and suspended in RPMI medium. The test compounds were pre-incubated with PBMC (0.5 million/incubation well) for 15 minutes at 37° C. and then stimulated with Lipopolysaccharide (Escherichia coli: B4; 1 μg/ml) for 18 hours at 37° C. in 5% CO2. The levels of IL-6 in cell culture medium were estimated using enzyme-linked immunosorbent assay performed in a 96 well format as per the procedure of the manufacturer (Cayman Chemical, Ann Arbor, USA).

In the test on TNF-α, `NS(=O)(=O)c1cccc(-c2c(-c3ccc(F)cc3)nc(C(F)(F)F)nc2-n2ccnc2)c1` [Example 80, 3-[4-(4-Fluorophenyl)-6-(1H-imidazol-1-yl)-2-(trifluoromethyl)pyrimidin-5-yl]benzenesulfonamide] gave an inhibition in vivo at 50 mg/kg of 82.8% and a TNF -α in vivo (mice) of 87%. Moreover, the “IBD DAI” value in the test on DSS Induced colitis is recorded as 35. Besides, the “Psoriasis Ear thickness” value in test [1] is given as 19. Further, in the test on TPA induced dermatitis, the “Psoriasis-acute TPA induced dermatitis % inhibition Ear Wt” value was 18.9% and the “Psoriasis-acute TPA induced dermatitis % inhibition Ear thickness” value is reported as 19.2%. Moreover, in the test on PDE4, the “PDE4 inhibition at 10 μM (%)” value came out at 87% and the “PDE4 at 10 μm” value amounted to 93.

On to `CCOC(=O)C1CCN(c2nc(C(F)(F)F)nc(-c3ccc(F)cc3)c2-c2cccc(S(N)(=O)=O)c2)CC1` [Example 59, Ethyl-1-[5-(3-aminosulfonylphenyl)-6-(4-fluorophenyl)-2-(trifluoromethyl)pyrimidin-4-yl]piperidine-4-carboxylate], for which the “% Inhibition in rEnzyme Assay COX-1” value in test [2] (10 μM) came to 32%. Also, the “COX1 at 10 μm” value in test [2] (Table XVa summary, 10 μm) is on record as 32. Moreover, in the test with IL-6, the “IL-6 at 10 μm” value was found to be 37. In the test with TNF-α, at 50 mg/kg the inhibition in vivo was 87.2% and the TNF -α in vivo (mice) amounted to 82%. Further, in the test on PDE4, the “PDE4 inhibition at 10 μM (%)” value is recorded as 93% and the “PDE4 at 10 μm” value is listed as 87.
